Measured values as given in patent US10219516B2, “Molecules having pesticidal utility, and intermediates, compositions, and processes, related thereto” (priority 2015, dated 2019).

Key:
Format in all cases: in vivo
[1] = test system: Beet Armyworm (Spodoptera exigua, LAPHEG); experiment: Bioassay on Beet Armyworm (BAW), 128-well diet tray assay; conditions: Species BAW (Beet Armyworm), read-out: BAW (Biological Results, rating)
Summary of the method: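 Artificial diet surface-treated with 50 μg/cm^2 test molecule in 90:10 acetone-water, dried, then infested with one to five second instar larvae per well. Held covered and vented at 25° C., 14:10 light-dark for five to seven days; percent mortality recorded per well and averaged over eight wells.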

[2] = test system: Cabbage Looper (Trichoplusia ni, TRIPNI); experiment: Bioassay on Cabbage Looper (CL), 128-well diet tray assay; conditions: Trichoplusia ni; Species CL (Cabbage Looper); read-out: CL (Biological Results, rating)
Summary of the method: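 Mortality of second instar larvae exposed to diet coated with 50 μg/cm^2 compound (acetone-water 90:10 vehicle, dried); 25° C., 5–7 days.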

[3] = test system: Yellow Fever Mosquito (Aedes aegypti, AEDSAE); experiment: Bioassay on Yellow Fever Mosquito (YFM), 96-well plate larval assay; conditions: Species YFM (Yellow Fever Mosquito)
Protocol: Certain molecules disclosed in this document were tested against YFM using procedures described in the following paragraph. In the reporting of the results, the “GPA & YFM Rating Table” was used (See Table Section).
Master plates containing 400 μg of a molecule dissolved in 100 μL of dimethyl sulfoxide (DMSO) (equivalent to a 4000 ppm solution) are used. A master plate of assembled molecules contains 15 μL per well. To this plate, 135 μL of a 90:10 water/acetone mixture is added to each well. A robot is programmed to dispense 15 μL aspirations from the master plate into an empty 96-well shallow plate (“daughter” plate). There are 6 reps (“daughter” plates) created per master. The created “daughter” plates are then immediately infested with YFM larvae.
The day before plates are to be treated, mosquito eggs are placed in Millipore water containing liver powder to begin hatching (4 g. into 400 mL). After the “daughter” plates are created using the robot, they are infested with 220 μL of the liver powder/larval mosquito mixture (about 1 day-old larvae). After plates are infested with mosquito larvae, a non-evaporative lid is used to cover the plate to reduce drying. Plates are held at room temperature for 3 days prior to grading. After 3 days, each well is observed and scored based on mortality. The results are indicated in the table entitled “Table ABC: Biological Results” (See Table Section).

SMILES | pest or weed control at 50 µg/cm2 [1] | pest or weed control at 50 µg/cm2 [2] | YFM (Biological Results, rating) [3]
O=C(Nc1ccc(F)cc1)c1cc(NC(=O)[C@H]2[C@H](c3cc(Cl)cc(Cl)c3)C2(Cl)Cl)ccc1C(F)(F)F (relative stereo) [F3, trans-5-(2,2-Dichloro-3-(3,5-dichlorophenyl)cyclopropane-1-carboxamido)-N-(4-fluorophenyl)-2-(trifluoromethyl)benzamide] | 50 to 100% | 50 to 100% | A (80-100)
O=C(Nc1ccc(F)cc1)c1cc(NC(=O)[C@H]2[C@H](c3cc(Cl)cc(Cl)c3)C2(Cl)Cl)ccc1I (relative stereo) [F4, trans-5-(2,2-Dichloro-3-(3,5-dichlorophenyl)cyclopropane-1-carboxamido)-N-(4-fluorophenyl)-2-iodobenzamide] | 50 to 100% | 50 to 100% | A (80-100)
O=C(Nc1ccc(F)cc1)c1cc(NC(=O)[C@H]2[C@H](c3cc(Cl)cc(Cl)c3)C2(Cl)Cl)ccc1-n1cncn1 (relative stereo) [F12, trans-5-(2,2-Dichloro-3-(3,5-dichlorophenyl)cyclopropane-1-carboxamido)-N-(4-fluorophenyl)-2-(1H-1,2,4-triazol-1-yl)benzamide] | 50 to 100% | 50 to 100% | A (80-100)
O=C(Nc1ccc(Cl)nc1)c1cc(NC(=O)[C@H]2[C@H](c3cc(Cl)cc(Cl)c3)C2(Cl)Cl)ccc1Cl (relative stereo) [F32, trans-2-Chloro-N-(6-chloropyridin-3-yl)-5-(2,2-dichloro-3-(3,5-dichlorophenyl)cyclopropane-1-carboxamido)benzamide] | 50 to 100% | 50 to 100% | A (80-100)
O=C(Nc1ccc(F)cc1)c1cc(NC(=O)[C@H]2[C@H](c3cccc(C(F)(F)F)c3)C2(Cl)Cl)ccc1Cl (relative stereo) [F56, trans-2-Chloro-5-(2,2-dichloro-3-(3-(trifluoromethyl)phenyl)cyclopropane-1-carboxamido)-N-(4-fluorophenyl)benzamide] | 50 to 100% | 50 to 100% | B (More than 0-Less than 80)
CN(C(=O)c1cc(NC(=O)[C@H]2[C@H](c3cccc(C(F)(F)F)c3)C2(Cl)Cl)ccc1Cl)c1ccc(F)cc1 (relative stereo) [F57, trans-2-Chloro-5-(2,2-dichloro-3-(3-(trifluoromethyl)phenyl)cyclopropane-1-carboxamido)-N-(4-fluorophenyl)-N-methylbenzamide] | 50 to 100% | 50 to 100% | B (More than 0-Less than 80)
O=C(Nc1c(F)cccc1F)c1cc(NC(=O)[C@H]2[C@H](c3cccc(C(F)(F)F)c3)C2(Cl)Cl)ccc1Cl (relative stereo) [F58, trans-2-Chloro-5-(2,2-dichloro-3-(3-(trifluoromethyl)phenyl)cyclopropane-1-carboxamido)-N-(2,6-difluorophenyl)benzamide] | 50 to 100% | 50 to 100% | A (80-100)
CN(C(=O)c1cc(NC(=O)[C@H]2[C@H](c3ccc(Cl)c(Cl)c3)C2(Cl)Cl)ccc1F)c1ccc(F)cc1 (relative stereo) [F59, trans-5-(2,2-Dichloro-3-(3,4-dichlorophenyl)cyclopropane-1-carboxamido)-2-fluoro-N-(4-fluorophenyl)-N-methylbenzamide] | 50 to 100% | 50 to 100% | A (80-100)
O=C(Nc1ccc(F)cc1F)c1cc(NC(=O)[C@H]2[C@H](c3cc(Cl)cc(Cl)c3)C2(Cl)Cl)ccc1F (relative stereo) [F61, trans-5-(2,2-Dichloro-3-(3,5-dichlorophenyl)cyclopropane-1-carboxamido)-N-(2,4-difluorophenyl)-2-fluorobenzamide] | 50 to 100% | 50 to 100% | B (More than 0-Less than 80)
O=C(Nc1ccc(F)cc1F)c1cc(NC(=O)[C@H]2[C@H](c3ccc(Cl)c(Cl)c3)C2(Cl)Cl)ccc1F (relative stereo) [F62, trans-5-(2,2-Dichloro-3-(3,4-dichlorophenyl)cyclopropane-1-carboxamido)-N-(2,4-difluorophenyl)-2-fluorobenzamide] | 50 to 100% | 50 to 100% | B (More than 0-Less than 80)
CN(C(=O)c1cc(NC(=O)[C@H]2[C@H](c3cc(Cl)cc(Cl)c3)C2(Cl)Cl)ccc1F)c1ccc(F)cc1F (relative stereo) [F63, trans-5-(2,2-Dichloro-3-(3,5-dichlorophenyl)cyclopropane-1-carboxamido)-N-(2,4-difluorophenyl)-2-fluoro-N-methylbenzamide] | 50 to 100% | 50 to 100% | A (80-100)
CN(C(=O)c1cc(NC(=O)[C@H]2[C@H](c3cc(Cl)c(Cl)c(Cl)c3)C2(Cl)Cl)ccc1F)c1ccc(F)cc1F (relative stereo) [F65, trans-5-(2,2-Dichloro-3-(3,4,5-trichlorophenyl)cyclopropane-1-carboxamido)-N-(2,4-difluorophenyl)-2-fluoro-N-methylbenzamide] | 50 to 100% | 50 to 100% | A (80-100)
CN(C(=O)c1cc(NC(=O)[C@H]2[C@H](c3cc(Cl)cc(Cl)c3)C2(Cl)Cl)ccc1F)c1ccccc1 (relative stereo) [F66, trans-5-(2,2-Dichloro-3-(3,5-dichlorophenyl)cyclopropane-1-carboxamido)-2-fluoro-N-methyl-N-phenylbenzamide] | 50 to 100% | 50 to 100% | A (80-100)
CN(C(=O)c1cc(NC(=O)[C@H]2[C@H](c3ccc(Cl)c(Cl)c3)C2(Cl)Cl)ccc1F)c1ccccc1 (relative stereo) [F67, trans-5-(2,2-Dichloro-3-(3,4-dichlorophenyl)cyclopropane-1-carboxamido)-2-fluoro-N-methyl-N-phenylbenzamide] | 50 to 100% | 50 to 100% | B (More than 0-Less than 80)
CN(C(=O)c1cc(NC(=O)[C@H]2[C@H](c3cc(Cl)c(Cl)c(Cl)c3)C2(Cl)Cl)ccc1F)c1ccccc1 (relative stereo) [F68, trans-5-(2,2-Dichloro-3-(3,4,5-trichlorophenyl)cyclopropane-1-carboxamido)-2-fluoro-N-methyl-N-phenylbenzamide] | 50 to 100% | 50 to 100% | B (More than 0-Less than 80)
CN(C(=O)c1cccc(NC(=O)[C@H]2[C@H](c3cc(Cl)cc(Cl)c3)C2(Cl)Cl)c1F)c1ccccc1 (relative stereo) [F69, trans-3-(2,2-Dichloro-3-(3,5-dichlorophenyl)cyclopropane-1-carboxamido)-2-fluoro-N-methyl-N-phenylbenzamide] | 50 to 100% | 50 to 100% | B (More than 0-Less than 80)
CN(C(=O)c1cccc(NC(=O)[C@H]2[C@H](c3ccc(Cl)c(Cl)c3)C2(Cl)Cl)c1F)c1ccccc1 (relative stereo) [F70, trans-3-(2,2-Dichloro-3-(3,4-dichlorophenyl)cyclopropane-1-carboxamido)-2-fluoro-N-methyl-N-phenylbenzamide] | 50 to 100% | 50 to 100% | A (80-100)
CN(C(=O)c1cccc(NC(=O)[C@H]2[C@H](c3cc(Cl)c(Cl)c(Cl)c3)C2(Cl)Cl)c1F)c1ccccc1 (relative stereo) [F71, trans-3-(2,2-Dichloro-3-(3,4,5-trichlorophenyl)cyclopropane-1-carboxamido)-2-fluoro-N-methyl-N-phenylbenzamide] | 50 to 100% | 50 to 100% | B (More than 0-Less than 80)
CN(C(=O)c1cc(NC(=O)[C@H]2[C@H](c3cc(Cl)c(Cl)cc3Cl)C2(Cl)Cl)ccc1Cl)c1ccc(F)cc1 (relative stereo) [F74, trans-2-Chloro-5-(2,2-dichloro-3-(2,4,5-trichlorophenyl)cyclopropane-1-carboxamido)-N-(4-fluorophenyl)-N-methylbenzamide] | 50 to 100% | 50 to 100% | B (More than 0-Less than 80)
